Patent US12365687B2 (Hoffmann-La Roche Inc., priority 2021, dated 2025)

Legend:
[1] = biological target: human GABAA α5β2γ1 receptor (Homo sapiens (Human), UniProt P31644+Q8N1C3); assay: Radioligand binding assay for γ1-containing GABAA subtypes, [3H]RO7239181 competition (α5β2γ1)
[2] = biological target: human GABAA α2β2γ1 receptor (Homo sapiens (Human), UniProt P47869+Q8N1C3); assay: Radioligand binding assay for γ1-containing GABAA subtypes, [3H]RO7239181 competition (α2β2γ1)
[3] = biological target: human GABAA α1β3γ2 receptor (Homo sapiens (Human), UniProt P14867+P18507); assay: Radioligand binding assay for γ2-containing GABAA subtypes, [3H]Flumazenil competition (α1β3γ2); conditions: for γ2/γ1 Selectivity Ratio: Ki α1β3γ2 (nM)/Ki α2β2γ1 (nM); for LogSel: Log[Ki α1β3γ2 (nM)/Ki α2β2γ1 (nM)]
[4] = biological target: α2β2γ1 GABAA receptor subtype (Homo sapiens (Human), UniProt P47869+Q8N1C3); assay: Two-electrode voltage clamp electrophysiology in Xenopus oocytes expressing GABAA receptors (modulation of GABA EC20 current); assay type: cell-based; conditions: for Efficacy (GABA)%: % modulation of GABA EC20 = 100*(Fold increase-1), α2β2γ1 oocytes, compound at approx. 30-fold Ki; for Fold increase h-GABA-A α2β2γ1 oocyte @ 30-fold Ki: Xenopus oocytes expressing α2β2γ1, compound at approx. 30-fold its Ki α2β2γ1, GABA EC20 current
Summary of the method: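 Each concentration was tested on ≥3 oocytes held at −80 mV at room temperature, recorded 3-5 days post-injection. A control and a test response to EC20 GABA (1.5 min each) were superimposed and their point-by-point ratio taken. Peak ratio reported as % modulation of GABA EC20 = 100×(fold increase−1).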

[5] = Ki h-GABAA α2β2γ1, [3H]RO7239181 competition binding, human GABAA α2β2γ1
[6] = Ki h-GABAA α2β2γ1, displacement of [3H]RO7239181, membranes of HEK293F cells expressing human receptors, means of two determinations

SMILES	Ki [1]	Ki [2, 5]	Ki [2, 6]	Ki [3]	γ2/γ1 Selectivity Ratio [3]	LogSel [3]	Efficacy (GABA)% [4]	Fold increase h-GABA-A α2β2γ1 oocyte @ 30-fold Ki [4]
Cc1cnc2n1-c1ccc(Br)c(Cl)c1C(c1c(F)cccc1F)=N[C@H]2C [Example 116, (4S)-8-bromo-7-chloro-6-(2,6-difluorophenyl)-1,4-dimethyl-4H-imidazo[1,2-a][1,4]benzodiazepine]	2.47 nM	5.7 nM	5.7 nM	94.5 nM	16.4	1.22	35%	1.35
C[C@@H]1N=C(c2c(F)cccc2F)c2c(ccc(C(F)(F)F)c2Cl)-n2nc(C(=O)NN3CCCC3)nc21 [Example 118, (4S)-7-chloro-6-(2,6-difluorophenyl)-4-methyl-N-pyrrolidin-1-yl-8-(trifluoromethyl)-4H-[1,2,4]triazolo[1,5-a][1,4]benzodiazepine-2-carboxamide]	4.18 nM	24.4 nM	24.4 nM	4450 nM	182.7	2.26	120%	2.20
C[C@@H]1N=C(c2ncccc2F)c2c(ccc(C(F)(F)F)c2Cl)-n2nc(C(=O)N3CC4(CCO4)C3)nc21 [Example 119, 1-oxa-6-azaspiro[3.3]heptan-6-yl-[(4S)-7-chloro-6-(3-fluoro-2-pyridyl)-4-methyl-8-(trifluoromethyl)-4H-[1,2,4]triazolo[1,5-a][1,4]benzodiazepin-2-yl]methanone]	10.3 nM	80.9 nM	80.9 nM	12600 nM	156.1	2.19	124%	2.24
C[C@@H]1N=C(c2ncccc2F)c2c(ccc(C(F)(F)F)c2Cl)-n2nc(C(=O)N3CC4(CCOC4)C3)nc21 [Example 120, 6-oxa-2-azaspiro[3.4]octan-2-yl-[(4S)-7-chloro-6-(3-fluoro-2-pyridyl)-4-methyl-8-(trifluoromethyl)-4H-[1,2,4]triazolo[1,5-a][1,4]benzodiazepin-2-yl]methanone]	8.55 nM	80.4 nM	80.4 nM	5330 nM	66.3	1.82	178%	2.78
C[C@@H]1N=C(c2c(F)cccc2F)c2c(ccc(C(F)(F)F)c2Cl)-n2nc(C(=O)N3CC(C(F)F)C3)nc21 [Example 122, [(4S)-7-chloro-6-(2,6-difluorophenyl)-4-methyl-8-(trifluoromethyl)-4H-[1,2,4]triazolo[1,5-a][1,4]benzodiazepin-2-yl]-[3-(difluoromethyl)azetidin-1-yl]methanone]	3.82 nM	10.6 nM	10.6 nM	3050 nM	287.8	2.46	91%	1.91
C[C@@H]1N=C(c2ncccc2F)c2c(ccc(C(F)(F)F)c2Cl)-n2nc(C(=O)N3CC[C@H](F)C3)nc21 [Example 123, [(4S)-7-chloro-6-(3-fluoro-2-pyridyl)-4-methyl-8-(trifluoromethyl)-4H-[1,2,4]triazolo[1,5-a][1,4]benzodiazepin-2-yl]-[(3S)-3-fluoropyrrolidin-1-yl]methanone]	9.75 nM	91.8 nM	91.9 nM	> 30000 nM	326.6	2.51	162%	2.62
C[C@@H]1N=C(c2ncccc2F)c2c(ccc(C(F)(F)F)c2Cl)-n2nc(C(=O)N3CCS(=O)(=O)CC3)nc21 [Example 124, [(4S)-7-chloro-6-(3-fluoro-2-pyridyl)-4-methyl-8-(trifluoromethyl)-4H-[1,2,4]triazolo[1,5-a][1,4]benzodiazepin-2-yl]-(1,1-dioxo-1,4-thiazinan-4-yl)methanone]	6.32 nM	26.2 nM	26.2 nM	14400 nM	547.2	2.74	145%	2.45
C[C@@H]1N=C(c2c(F)cccc2F)c2c(ccc(C(F)(F)F)c2Cl)-n2nc(NC(=O)NC3COC3)nc21 [Example 125, 1-[(4S)-7-chloro-6-(2,6-difluorophenyl)-4-methyl-8-(trifluoromethyl)-4H-[1,2,4]triazolo[1,5-a][1,4]benzodiazepin-2-yl]-3-(oxetan-3-yl)urea]	1.7 nM	6.2 nM	6.19 nM	1600 nM	259.0	2.41	73%	1.73
C[C@@H]1N=C(c2c(F)cccc2F)c2c(ccc(C(F)(F)F)c2Cl)-n2nc(NC(=O)NC3CC3)nc21 [Example 126, 1-[(4S)-7-chloro-6-(2,6-difluorophenyl)-4-methyl-8-(trifluoromethyl)-4H-[1,2,4]triazolo[1,5-a][1,4]benzodiazepin-2-yl]-3-cyclopropyl-urea]	3.23 nM	10.2 nM	10.2 nM	4600 nM	451.4	2.65	38%	1.38
COC1CN(C(=O)Nc2nc3n(n2)-c2ccc(C(F)(F)F)c(Cl)c2C(c2c(F)cccc2F)=N[C@H]3C)C1 [Example 127, N-[(4S)-7-chloro-6-(2,6-difluorophenyl)-4-methyl-8-(trifluoromethyl)-4H-[1,2,4]triazolo[1,5-a][1,4]benzodiazepin-2-yl]-3-methoxy-azetidine-1-carboxamide]	5.46 nM	49.4 nM	49.4 nM	4760 nM	96.5	1.98	112%	2.12
C[C@@H]1N=C(c2c(F)cccc2F)c2c(ccc(C(F)(F)F)c2Cl)-n2nc(NC(=O)N3CC(F)C3)nc21 [Example 128, N-[(4S)-7-chloro-6-(2,6-difluorophenyl)-4-methyl-8-(trifluoromethyl)-4H-[1,2,4]triazolo[1,5-a][1,4]benzodiazepin-2-yl]-3-fluoro-azetidine-1-carboxamide]	4.2 nM	34.8 nM	34.9 nM	3880 nM	111.4	2.05	98%	1.98
C[C@@H]1N=C(c2c(F)cccc2F)c2c(ccc(C(F)(F)F)c2Cl)-n2nc(NC(=O)N3CCS(=O)(=O)CC3)nc21 [Example 131, N-[(4S)-7-chloro-6-(2,6-difluorophenyl)-4-methyl-8-(trifluoromethyl)-4H-[1,2,4]triazolo[1,5-a][1,4]benzodiazepin-2-yl]-1,1-dioxo-1,4-thiazinane-4-carboxamide]	3.38 nM	13.8 nM	13.8 nM	2430 nM	176.5	2.25	104%	2.04
C[C@@H]1N=C(c2c(F)cccc2F)c2c(ccc(C(F)(F)F)c2Cl)-n2c(CO)cnc21 [Example 132, [(4S)-7-chloro-6-(2,6-difluorophenyl)-4-methyl-8-(trifluoromethyl)-4H-imidazo[1,2-a][1,4]benzodiazepin-1-yl]methanol]	2.63 nM	33.8 nM	33.8 nM	2560 nM	75.8	1.88	105%	2.05
C[C@@H]1N=C(c2c(F)cccc2F)c2c(ccc(C(F)(F)F)c2Cl)-n2c1nc1c2CCC1 [Example 133, (10S)-6-chloro-8-(2,6-difluorophenyl)-10-methyl-5-(trifluoromethyl)-1,9,12-triazatetracyclo[9.6.0.02,7.013,17]heptadeca-2,4,6,8,11,13(17)-hexaene]	5.23 nM	23.3 nM	23.3 nM	827 nM	35.5	1.55	41%	1.41
CC1CN(C(=O)c2nc3n(n2)-c2ccc(C(F)(F)F)c(Cl)c2C(c2ncccc2F)=N[C@H]3C)C1 [Example 135, [(4S)-7-chloro-6-(3-fluoro-2-pyridyl)-4-methyl-8-(trifluoromethyl)-4H-[1,2,4]triazolo[1,5-a][1,4]benzodiazepin-2-yl]-(3-methylazetidin-1-yl)methanone]	9.35 nM	50.6 nM	50.6 nM	> 30000 nM	592.7	2.77	118%	2.18
